According to patent US20120052025A1 (Colgate-Palmolive Company, priority 2009, published 2012):
≈ marks a conversion by molar mass, not a printed value.

Experiments:
[1] = Stability of formulations with and without antioxidants; format: physicochemical
Text: The stability of three formulations of Compound 1 are compared, the formulations being identical except that one is without any antioxidants, one contains α-tocopherol, and the third contains sodium ascorbylphosphate.

[2] = Decomposition in buffered vs unbuffered pH 7.2 formulation; format: physicochemical; conditions: pH 7.2, phosphate buffer, 14 days
Method: Two pH 7.2 formulations of Compound 1 are prepared, one with phosphate buffer, one without, and the decomposition of Compound 1 is measured over 14 days. While measurable decomposition is seen in both formulations, the slope of the rate of decomposition Compound 1 in the buffered formulation is decreased by 3.3 fold compared to that of the unbuffered formulation.

V. parvula = assay: Minimum inhibitory concentration; format: cell-based; conditions: Veillonella parvula, Gram Negative, ethanol vehicle
Text: (§1) The minimum inhibitory concentration for COMPOUND 1 against common oral bacteria is found to be as follows. Ethanol is used as vehicle.

S. oralis = assay: Minimum inhibitory concentration; format: cell-based; conditions: Streptococcus oralis, Gram Positive, ethanol vehicle
Text: as §1

A. viscosus = assay: Minimum inhibitory concentration; format: cell-based; conditions: Actinomyces viscosus, Gram Positive, ethanol vehicle
Text: as §1

A. actinomycetemcomitans = assay: Minimum inhibitory concentration; format: cell-based; conditions: Aggregatibacter actinomycetemcomitans, Gram Negative, ethanol vehicle
Text: as §1

F. nucleatum = assay: Minimum inhibitory concentration; format: cell-based; conditions: Fusobacterium nucleatum, Gram Negative, ethanol vehicle
Text: as §1

S. gordonii = assay: Minimum inhibitory concentration; format: cell-based; conditions: Streptococcus gordonii, Gram Positive, ethanol vehicle
Text: as §1

S. sobrinus = assay: Minimum inhibitory concentration; format: cell-based; conditions: Streptococcus sobrinus, Gram Positive, ethanol vehicle
Text: as §1

S. sanguinis = assay: Minimum inhibitory concentration; format: cell-based; conditions: Streptococcus sanguinis, Gram Positive, ethanol vehicle
Text: as §1

S. mutans = assay: Minimum inhibitory concentration; format: cell-based; conditions: Streptococcus mutans, Gram Positive, ethanol vehicle
Text: as §1

P. intermedia = assay: Minimum inhibitory concentration; format: cell-based; conditions: Prevotella intermedia, Gram Negative, ethanol vehicle
Text: as §1

P. gingivalis = assay: Minimum inhibitory concentration; format: cell-based; conditions: Porphyromonas gingivalis, Gram Negative, ethanol vehicle
Text: as §1

A. naeslundii = assay: Minimum inhibitory concentration; format: cell-based; conditions: Actinomyces naeslundii, Gram Positive, ethanol vehicle
Text: as §1

L. casei = assay: Minimum inhibitory concentration; format: cell-based; conditions: Lacticaseibacillus casei, Gram Positive, ethanol vehicle
Text: as §1

biofilm = assay: Biofilm disruption assay; format: cell-based
Method: The solution of 0.5% AN0128.0.75% SLS. 50% Fluraflo L4370 in water is then tested in a biofilm disruption assay.
A solution of 2% Compound 1 in PEG 300 is diluted 1:1 with 2% SLS in water to produce a solution composed of 1% Compound 1, 1% SLS, 50% PEG 300 in water which is then tested in a biofilm disruption assay.
(§2) The properties of Compound 1 in conjunction with other excipients are further evaluated by diluting a solution of Compound 1 in PEG 300 into other solvents such as propylene glycol and glycerin at varying ratios. A solution containing 1% Compound 1 in 19% PEG 300 and 80% propylene glycol is clear. This solution is then diluted 1:1 with 1% SLS in water to produce a solution composed of 0.5% Compound 1, 0.5% SLS, 9.5% PEG 300 and 40% propylene glycol in water which is then tested in the biofilm disruption assay. The percent reduction achieved versus the negative control is 80%. […] Similar results are achieved with PEG and glycerin.

[3] = format: physicochemical
Text: Although some borinic esters are effective as antibacterial agents, incorporating borinic esters into oral care compositions presents difficulties, as borinic esters have proven to be unstable when added to aqueous compositions. For example, borinic esters may hydrolyze and decompose, e.g., in oral care compositions. Additionally, borinic esters may be insoluble in aqueous compositions. […] There remains a need to develop compositions and methods to incorporate borinic acid derivatives stably in oral care compositions.
The poor solubility of Compound A presents some formulation challenges. Its solubility in water is less than 100 ppm, and its solubility in flavor oils (often used to solubilize actives) is less than 0.5%. We have discovered that co-polymers of polyethylene glycol and polypropylene glycol are able to solubilize Compound 1. Fluraflo L4370 (BASF) is able to solubilize 1% Compound 1 (% w/w). It is necessary to stir the solution over low heat to fully solubilize the active. The resulting solution is cloudy, reflecting the nature of the Fluraflo L4370 itself. The solution of 1% Compound 1 in Fluraflo L4370 is diluted 1:1 with 1.5% SLS in water to produce a clear solution, composed of 0.5% AN0128, 0.75% SLS, 50% Fluraflo L4370 in water Similar results are achieved using Fluracare L1220.
We further discovered that low molecular weight polyethylene glycol 300 (PEG 300) (Dow Chemical Company) solubilizes 10% Compound 1 (% w/w). It is necessary to stir the solution over low heat to fully solubilize the active. The resulting solution is clear with a slight yellow tint due to the color of Compound 1. […] Therefore, we conclude that solvents containing oligomers and/or polymers of ethylene glycol are capable of solubilizing Compound 1 and are suitable for formulation.
as §2

Which decomposition in formulation ([1]; formulation containing sodium ascorbylphosphate vs without antioxidants) does the source give for `Cc1ccc([B-]2(c3ccc(C)c(Cl)c3)OC(=O)c3ncccc3[OH+]2)cc1Cl` [Compound 1] here?
Its decomposition in formulation is “significantly reduced”.

And the decomposition in formulation ([1]; formulation containing α-tocopherol vs without antioxidants)?
The decomposition in formulation was “even less”.

And the “decrease of the slope of the rate of decomposition, buffered vs unbuffered formulation” value [2]?
The value was 3.3 fold.

And the MIC (V. parvula)?
The MIC was 7.8 µg/mL (≈ 19.5 µM).

And the MIC (S. oralis)?
The MIC was 0.12 to 0.25 µg/mL (≈ 0.3 to 0.625 µM).

What about the MIC (A. viscosus) of the same molecule?
Its MIC is 1 µg/mL (≈ 2.5 µM).

What about the MIC (A. actinomycetemcomitans) of the same molecule?
Its MIC is over 15.6 µg/mL.

What about the MIC (F. nucleatum) of the same molecule?
The MIC was 1 to 2 µg/mL (≈ 2.5 to 5 µM).

What about the MIC (S. gordonii) of the same molecule?
The MIC was 0.12 to 0.25 µg/mL (≈ 0.3 to 0.625 µM).

What about the MIC (S. sobrinus) of the same molecule?
The MIC was 0.12 to 0.5 µg/mL (≈ 0.3 to 1.25 µM).

And the MIC (S. sanguinis)?
The MIC was 0.25 to 0.5 µg/mL (≈ 0.625 to 1.25 µM).

And the MIC (S. mutans)?
Its MIC is 0.25 to 0.5 µg/mL (≈ 0.625 to 1.25 µM).

And the MIC (P. intermedia)?
The MIC was 3.9 to 7.8 µg/mL (≈ 9.75 to 19.5 µM).

What about the MIC (P. gingivalis) of the same molecule?
The MIC was at most 0.12 µg/mL.

What about the MIC (A. naeslundii) of the same molecule?
Its MIC is 1 to 2 µg/mL (≈ 2.5 to 5 µM).

And the MIC (L. casei)?
Its MIC is 2 to 3.9 µg/mL (≈ 5 to 9.75 µM).

What about the “percent reduction versus the negative control” value (biofilm; solution of 0.5% AN0128, 0.75% SLS, 50% Fluraflo L4370 in water) of the same molecule?
The value was 65%.

And the “percent reduction versus the negative control” value (biofilm; solution of 0.5% Compound 1, 0.5% SLS, 9.5% PEG 300 and 40% propylene glycol in water)?
Its value is 80%.

What about the “percent reduction versus the negative control” value (biofilm; solution of 1% Compound 1, 1% SLS, 50% PEG 300 in water) of the same molecule?
The value was 76%.

And the “amount of Compound 1 solubilized by Fluraflo L4370” value [3]?
Its value is 1 % w/w.

What about the “amount of Compound 1 solubilized by PEG 300” value [3] of the same molecule?
The value was 10 % w/w.

And the solubility in oils [3]?
The solubility in oils was “less than 0.5%”.

What about the solubility in water [3] of the same molecule?
Its solubility in water is 100 ppm.

What about the “solubilization by PEG 600” value [3] of the same molecule?
The value was “can solubilize”.

What about the appearance of solution ([3]; 1% Compound 1 in 19% PEG 300 and 80% propylene glycol) of the same molecule?
Its appearance of solution is “clear”.
